Experimental data: ChEMBL document CHEMBL1156558, “Improvement of the transactivation activity of phenylpropanoic acid-type peroxisome proliferator-activated receptor pan agonists: effect of introduction of fluorine at the linker part” (Bioorg Med Chem Lett, 2008)

Experiments:
Assay type in all cases: functional, cell-based
[1] = molecular target: T1, Peroxisome proliferator-activated receptor alpha (Homo sapiens, UniProt Q07869); test: Agonist activity at PPARalpha transfected in HEK293 cells by GAL4 transactivation assay
T1 sequence (Q07869 whole entry): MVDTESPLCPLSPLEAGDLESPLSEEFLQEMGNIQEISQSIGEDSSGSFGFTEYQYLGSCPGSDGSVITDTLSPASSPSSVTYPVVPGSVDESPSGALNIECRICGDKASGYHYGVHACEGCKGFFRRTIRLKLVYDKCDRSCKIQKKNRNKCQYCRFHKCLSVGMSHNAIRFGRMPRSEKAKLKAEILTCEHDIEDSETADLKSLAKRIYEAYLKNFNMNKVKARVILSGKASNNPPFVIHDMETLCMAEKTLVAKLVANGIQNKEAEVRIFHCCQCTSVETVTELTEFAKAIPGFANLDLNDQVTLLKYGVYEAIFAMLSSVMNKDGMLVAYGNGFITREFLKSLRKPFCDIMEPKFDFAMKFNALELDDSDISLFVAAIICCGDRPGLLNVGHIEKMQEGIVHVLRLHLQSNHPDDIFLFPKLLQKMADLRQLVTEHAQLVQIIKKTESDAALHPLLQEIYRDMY

[2] = molecular target: T2, Peroxisome proliferator-activated receptor gamma (Homo sapiens, UniProt P37231); test: Agonist activity at PPARgamma transfected in HEK293 cells by GAL4 transactivation assay
T2 sequence (P37231 whole entry): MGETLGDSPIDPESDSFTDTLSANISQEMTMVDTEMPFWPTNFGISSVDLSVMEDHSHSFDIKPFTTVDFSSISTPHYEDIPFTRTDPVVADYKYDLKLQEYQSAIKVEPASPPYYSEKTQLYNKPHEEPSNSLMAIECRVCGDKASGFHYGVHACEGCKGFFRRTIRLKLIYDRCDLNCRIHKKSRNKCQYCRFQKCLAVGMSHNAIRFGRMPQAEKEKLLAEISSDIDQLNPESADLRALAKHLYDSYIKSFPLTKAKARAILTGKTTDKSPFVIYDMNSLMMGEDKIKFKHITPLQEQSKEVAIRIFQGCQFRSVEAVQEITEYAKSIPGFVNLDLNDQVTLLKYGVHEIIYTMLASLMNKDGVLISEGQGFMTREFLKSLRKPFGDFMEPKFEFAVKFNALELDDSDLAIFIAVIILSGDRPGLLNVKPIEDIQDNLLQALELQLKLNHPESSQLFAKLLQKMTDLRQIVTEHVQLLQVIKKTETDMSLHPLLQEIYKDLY

[3] = molecular target: T3, Peroxisome proliferator-activated receptor delta (Homo sapiens, UniProt Q03181); test: Agonist activity at PPARdelta transfected in HEK293 cells by GAL4 transactivation assay
T3 sequence (Q03181 whole entry): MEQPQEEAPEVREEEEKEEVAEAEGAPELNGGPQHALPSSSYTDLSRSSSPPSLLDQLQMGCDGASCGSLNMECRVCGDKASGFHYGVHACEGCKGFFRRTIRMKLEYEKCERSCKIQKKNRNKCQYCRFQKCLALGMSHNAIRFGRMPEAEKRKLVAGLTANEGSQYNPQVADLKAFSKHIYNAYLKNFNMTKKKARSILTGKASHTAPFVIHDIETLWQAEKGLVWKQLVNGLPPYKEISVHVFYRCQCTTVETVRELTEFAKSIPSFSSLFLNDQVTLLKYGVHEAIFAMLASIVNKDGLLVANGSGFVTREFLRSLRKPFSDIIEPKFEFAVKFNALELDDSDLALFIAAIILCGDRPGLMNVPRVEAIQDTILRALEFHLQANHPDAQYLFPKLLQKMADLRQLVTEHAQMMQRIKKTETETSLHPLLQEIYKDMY

SMILES | EC50 [1] [nM] | EC50 [2] [nM] | EC50 [3] [nM]
CCCOc1ccc(C[C@H](CC)C(=O)O)cc1CNC(=O)c1ccc(C23CC4CC(CC(C4)C2)C3)cc1 | 58 |  | 
CCCOc1cc(F)c(C[C@@H](CC)C(=O)O)cc1CNC(=O)c1ccc(C23CC4CC(CC(C4)C2)C3)cc1F | 200 | 160 | 180
CCC(Cc1ccc(OC)c(CNC(=O)c2ccc(C34CC5CC(CC(C5)C3)C4)cc2)c1)C(=O)O (racemic) | 53 | 110 | 940
CCC(Cc1cc(F)c(OC)c(CNC(=O)c2ccc(C(F)(F)F)cc2)c1)C(=O)O (racemic) | 54 | > 10000 | 59
CCC(Cc1ccc(OC)c(CNC(=O)c2ccc(C34CC5CC(CC(C5)C3)C4)cc2F)c1)C(=O)O (racemic) | 60 | 140 | 550
CCC(Cc1cc(F)c(OC)c(CNC(=O)c2ccc(C34CC5CC(CC(C5)C3)C4)cc2)c1)C(=O)O (racemic) | 260 | 190 | 2200
CCCOc1cc(F)c(CC(CC)C(=O)O)cc1CNC(=O)c1ccc(C23CC4CC(CC(C4)C2)C3)cc1F (racemic) | 13 | 35 | 28
CCCOc1cc(F)c(CC(CC)C(=O)O)cc1CNC(=O)c1ccc(C23CC4CC(CC(C4)C2)C3)cc1 (racemic) | 17 | 15 | 60

Next, values leading:

EC50 [1] [nM] | EC50 [2] [nM] | EC50 [3] [nM] | SMILES
12 | 38 | 25 | CCCOc1cc(F)c(C[C@H](CC)C(=O)O)cc1CNC(=O)c1ccc(C23CC4CC(CC(C4)C2)C3)cc1F
7.9 | 2600 | 29 | CCC(Cc1ccc(OC)c(CNC(=O)c2ccc(C(F)(F)F)cc2F)c1)C(=O)O (racemic)
13 | 36 | 280 | CCC(Cc1cc(CNC(=O)c2ccc(C34CC5CC(CC(C5)C3)C4)cc2)c(OC)cc1F)C(=O)O (racemic)
7.1 | 24 | 94 | CCOc1cc(F)c(CC(CC)C(=O)O)cc1CNC(=O)c1ccc(C23CC4CC(CC(C4)C2)C3)cc1 (racemic)
7.5 | 22 | 55 | CCOc1cc(F)c(CC(CC)C(=O)O)cc1CNC(=O)c1ccc(C23CC4CC(CC(C4)C2)C3)cc1F (racemic)
3.6 | 1100 | 20 | CCC(Cc1cc(CNC(=O)c2ccc(C(F)(F)F)cc2)c(OC)cc1F)C(=O)O (racemic)
